From PubChem BioAssay (NCI)
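Tested at 5 concentrations; 48 h exposure; 96-well plates; endpoints linearly interpolated, else capped at highest concentration. At the GI50, growth is halved. TGI is the concentration that stops growth completely.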

Experiments:
Assay in all cases: DTP human tumour cell line panel, 48 h; in the data active = GI50 below about 0.43 µM; inactive = the rest
786-0 renal = system: 786-0 renal
A498 renal = system: A498 renal
ACHN renal = system: ACHN renal
BT-549 breast = system: BT-549 breast
CAKI-1 renal = system: CAKI-1 renal
COLO 205 colon = system: COLO 205 colon
DU-145 prostate = system: DU-145 prostate
HCC-2998 colon = system: HCC-2998 colon
HCT-116 colon = system: HCT-116 colon
HCT-15 colon = system: HCT-15 colon
HL-60(TB) leukemia = system: HL-60(TB) leukemia
HOP-62 NSCLC = system: HOP-62 NSCLC
HOP-92 NSCLC = system: HOP-92 NSCLC
HS 578T breast = system: HS 578T breast
HT29 colon = system: HT29 colon
IGROV1 ovarian = system: IGROV1 ovarian
K-562 leukemia = system: K-562 leukemia
KM12 colon = system: KM12 colon
LOX IMVI melanoma = system: LOX IMVI melanoma
M14 melanoma = system: M14 melanoma
MALME-3M melanoma = system: MALME-3M melanoma
MCF7 breast = system: MCF7 breast
MDA-MB-231 breast = system: MDA-MB-231 breast
MDA-MB-435 = system: MDA-MB-435
MOLT-4 leukemia = system: MOLT-4 leukemia
NCI-H226 lung = system: NCI-H226 lung
NCI-H23 lung = system: NCI-H23 lung
NCI-H460 lung = system: NCI-H460 lung
NCI/ADR-RES ovarian = system: NCI/ADR-RES ovarian
OVCAR-3 ovarian = system: OVCAR-3 ovarian
OVCAR-4 ovarian = system: OVCAR-4 ovarian
OVCAR-5 ovarian = system: OVCAR-5 ovarian
OVCAR-8 ovarian = system: OVCAR-8 ovarian
PC-3 prostate = system: PC-3 prostate
RPMI-8226 leukemia = system: RPMI-8226 leukemia
RXF 393 renal = system: RXF 393 renal
SF-268 CNS = system: SF-268 CNS
SF-295 CNS = system: SF-295 CNS
SF-539 CNS = system: SF-539 CNS
SK-MEL-2 melanoma = system: SK-MEL-2 melanoma
SK-MEL-28 melanoma = system: SK-MEL-28 melanoma
SK-MEL-5 melanoma = system: SK-MEL-5 melanoma
SK-OV-3 ovarian = system: SK-OV-3 ovarian
SN12C renal = system: SN12C renal
SNB-19 CNS = system: SNB-19 CNS
SNB-75 CNS = system: SNB-75 CNS
SR leukemia = system: SR leukemia
SW-620 colon = system: SW-620 colon
T-47D breast = system: T-47D breast
TK-10 renal = system: TK-10 renal
U251 CNS = system: U251 CNS
UACC-62 melanoma = system: UACC-62 melanoma
UO-31 renal = system: UO-31 renal

CCCCc1ccc(NS(=O)(=O)c2cc3c4c(c2)CCN4C(=O)CC3)cc1
36.4 µM: TGI (HOP-92 NSCLC)
87.2 µM: TGI (COLO 205 colon)
93.8 µM: TGI (SF-295 CNS)
65.2 µM: TGI (UACC-62 melanoma)
55 µM: TGI (TK-10 renal)
62.5 µM: TGI (RXF 393 renal)
45.4 µM: TGI (SK-MEL-5 melanoma)
78.5 µM: TGI (CAKI-1 renal)
94.1 µM: TGI (HOP-62 NSCLC)
61.2 µM: TGI (HS 578T breast)
78 µM: TGI (SNB-75 CNS)
inactive: GI50 (786-0 renal) 17.9 µM | GI50 (A498 renal) 5.82 µM | GI50 (ACHN renal) 15.7 µM | GI50 (BT-549 breast) 18 µM | GI50 (CAKI-1 renal) 8.49 µM | GI50 (COLO 205 colon) 25.1 µM | GI50 (DU-145 prostate) 35.5 µM | GI50 (HCC-2998 colon) 89.5 µM | GI50 (HCT-116 colon) 17.5 µM | GI50 (HCT-15 colon) 17 µM | GI50 (HL-60(TB) leukemia) 12.2 µM | GI50 (HOP-62 NSCLC) 28.5 µM | GI50 (HOP-92 NSCLC) 9.27 µM | GI50 (HS 578T breast) 15.2 µM | GI50 (HT29 colon) 32.5 µM | GI50 (IGROV1 ovarian) 44.4 µM | GI50 (K-562 leukemia) 9.3 µM | GI50 (KM12 colon) 26.9 µM | GI50 (LOX IMVI melanoma) 35.1 µM | GI50 (M14 melanoma) 19.8 µM | GI50 (MALME-3M melanoma) 35.4 µM | GI50 (MCF7 breast) 9.94 µM | GI50 (MDA-MB-231 breast) 16.1 µM | GI50 (MDA-MB-435) 16.9 µM | GI50 (MOLT-4 leukemia) 11.2 µM | GI50 (NCI-H226 lung) 15.9 µM | GI50 (NCI-H23 lung) 10.6 µM | GI50 (NCI-H460 lung) 28.2 µM | GI50 (NCI/ADR-RES ovarian) 7.97 µM | GI50 (OVCAR-3 ovarian) 22.6 µM | GI50 (OVCAR-4 ovarian) 25.1 µM | GI50 (OVCAR-5 ovarian) 35.8 µM | GI50 (OVCAR-8 ovarian) 19.7 µM | GI50 (PC-3 prostate) 11.7 µM | GI50 (RPMI-8226 leukemia) 7.79 µM | GI50 (RXF 393 renal) 16.1 µM | GI50 (SF-268 CNS) 30.3 µM | GI50 (SF-295 CNS) 13.4 µM | GI50 (SF-539 CNS) 24.4 µM | GI50 (SK-MEL-2 melanoma) 17.5 µM | GI50 (SK-MEL-28 melanoma) 39.3 µM | GI50 (SK-MEL-5 melanoma) 8.25 µM | GI50 (SK-OV-3 ovarian) 34.9 µM | GI50 (SN12C renal) 34.6 µM | GI50 (SNB-19 CNS) 29.8 µM | GI50 (SNB-75 CNS) 18.4 µM | GI50 (SR leukemia) 7.35 µM | GI50 (SW-620 colon) 33.5 µM | GI50 (T-47D breast) 5.48 µM | GI50 (TK-10 renal) 15.1 µM | GI50 (U251 CNS) 23.5 µM | GI50 (UACC-62 melanoma) 6.1 µM | GI50 (UO-31 renal) 12.8 µM
72.1 µM: TGI (T-47D breast)
74.6 µM: TGI (786-0 renal)
58.3 µM: TGI (HL-60(TB) leukemia)
> 100 µM: TGI (ACHN renal) | TGI (BT-549 breast) | TGI (DU-145 prostate) | TGI (HCC-2998 colon) | TGI (HCT-116 colon) | TGI (HCT-15 colon) | TGI (HT29 colon) | TGI (IGROV1 ovarian) | TGI (K-562 leukemia) | TGI (KM12 colon) | TGI (LOX IMVI melanoma) | TGI (M14 melanoma) | TGI (MALME-3M melanoma) | TGI (MCF7 breast) | TGI (MDA-MB-231 breast) | TGI (MDA-MB-435) | TGI (NCI-H226 lung) | TGI (NCI-H23 lung) | TGI (NCI-H460 lung) | TGI (NCI/ADR-RES ovarian) | TGI (OVCAR-3 ovarian) | TGI (OVCAR-4 ovarian) | TGI (OVCAR-5 ovarian) | TGI (OVCAR-8 ovarian) | TGI (PC-3 prostate) | TGI (SF-268 CNS) | TGI (SF-539 CNS) | TGI (SK-MEL-28 melanoma) | TGI (SK-OV-3 ovarian) | TGI (SN12C renal) | TGI (SNB-19 CNS) | TGI (SR leukemia) | TGI (SW-620 colon) | TGI (U251 CNS) | TGI (UO-31 renal)
63.6 µM: TGI (SK-MEL-2 melanoma)
57 µM: TGI (RPMI-8226 leukemia)
77.6 µM: TGI (MOLT-4 leukemia)
37.5 µM: TGI (A498 renal)
